Assays:
Assay type in all cases: in vivo
Xanthomonas campestris = assay: Effect on Xanthomonas campestris on Zinnia, foliar spray; conditions: for Efficacy 12 DAT* (%): 1 spray application, 12 days after treatment, rate per substance as in Table 3
Description: Vegetatively mature zinnia plants were treated with pydiflumetofen treatments by foliar spray (for Xanthomonas or Pseudomonas spp.). One to two days post treatment, the plants were atomized with a bacterial suspension (1×10^8 cfu/mL, determined with a spectrometer) and maintained at 100% relative humidity for 24 to 48 hours to promote infection. The plants were then maintained in a greenhouse or outdoor shade structure and disease incidence and severity recorded, as well as plant health and fresh weight if applicable.

Xanthomonas orycea = assay: Comparison of SDHI fungicides on Xanthomonas orycea / rice / preventative (bacterial blight of rice); conditions: for Efficacy (%): rice cv. Balilla, preventative spray, 14 days incubation
Description: 3 week old rice plants cv. Balilla were treated with the formulated test compound in a spray chamber. Two days after application rice plants were infected by cutting the upper leaf level and the bacteria suspension applied on the cutting edges. After an incubation period of 14 days at 23° C. and 80% relative humidity, a visual assessment of the disease level was performed.

Xanthomonas perforans = assay: Greenhouse test on tomato plants inoculated with Xanthomonas perforans (tomato bacterial spot), injured leaf area; conditions: up to 18 days after inoculation
Description: The experiment was carried out in a greenhouse in the Olericulture Sector of the Federal University of Goiás. The location has temperature and humidity control. Tomato seedlings cv. Totalle with two true leaves were transplanted into 1 L pots containing professional growing media. Two days after transplanting, the first application of the substances was carried out. Bion (acibenzolar-S-methyl, 25 g product/ha—12.5 g ai/ha), Miravis (pydiflumetofen, 0.60 kg product/ha—120 g ai/ha), Kocide (copper hydroxide, 1.50 kg product/ha) and Kasumin (kasugamycin, 2 L product/ha) were evaluated. The untreated control received only water. For application, the pots were placed on the floor and spraying was carried out using a spray device (having 6 nozzles with 0.5 m spacing between nozzles) with a pressurized CO2 sprayer and a spray volume of 300 L/ha.
The applications were carried out on days 1, 7 and 14. On day 9 (between the second and third applications), inoculation with a Xanthomonas perforans isolate was performed. The plants were uniformly sprayed once over all leaves with a suspension of the pathogen at a concentration of […] colony forming units per millilitre (cfu/mL). Three evaluations were performed at 6, 13 and 18 days after inoculation (DAI), and the percentage of injured leaf (area of leaf with bacterial spot) area was calculated.

Ralstonia spp. = assay: Effect on Ralstonia spp. on Geranium, drench, wilt
Description: Vegetatively mature geranium plants were treated with pydiflumetofen treatments by drench (Ralstonia spp.). One to two days post treatment, the inoculum was applied as a soil-drench. The plants were then maintained in a greenhouse or outdoor shade structure and disease incidence and severity were recorded.

With `Cn1cc(C(=O)Nc2cccc3c2[C@@H]2CC[C@H]3C2=C(Cl)Cl)c(C(F)F)n1` (racemic) [Benzovindiflupyr, reference compound] the “Efficacy 12 DAT* (%)” value (Xanthomonas campestris) was 63%.
With `O=C(Nc1ccccc1-c1ccc(Cl)cc1)c1cccnc1Cl` [Boscalid] the “Efficacy (%)” value (Xanthomonas orycea; 6 Mg ai/L) was 0%, the “Efficacy (%)” value (Xanthomonas orycea; 20 Mg ai/L) was 0% and the “Efficacy (%)” value (Xanthomonas orycea; 60 Mg ai/L) was 0%.
In the case of `Cn1cc(C(=O)Nc2ccccc2-c2cc(F)c(F)c(F)c2)c(C(F)F)n1` [Fluxapyroxad], the “Efficacy (%)” value (Xanthomonas orycea; 6 Mg ai/L) was 0%, the “Efficacy (%)” value (Xanthomonas orycea; 20 Mg ai/L) was 0% and the “Efficacy (%)” value (Xanthomonas orycea; 60 Mg ai/L) was 0%.
In the case of `CC(C)c1ccc(Cl)cc1CN(C(=O)c1c(C(F)F)nn(C)c1F)C1CC1` [Isoflucypram], the “Efficacy (%)” value (Xanthomonas orycea; 6 Mg ai/L) was 0%, the “Efficacy (%)” value (Xanthomonas orycea; 20 Mg ai/L) was 0% and the “Efficacy (%)” value (Xanthomonas orycea; 60 Mg ai/L) was 0%.
For `CON(C(=O)c1cn(C)nc1C(F)F)C(C)Cc1c(Cl)cc(Cl)cc1Cl` (centres unmarked) [Pydiflumetofen, 3-(difluoromethyl)-N-methoxy-1-methyl-N-[1-methyl-2-(2,4,6-trichloro-phenyl)ethyl]-1H-pyrazole-4-carboxamide], the “control of Xanthomonas perforans (in words)” value (Xanthomonas perforans) was “good control”, the “control of Xanthomonas orycea (in words)” value (Xanthomonas orycea; 6 mg ai/L) was “marginal effect” and the “control of Xanthomonas orycea (in words)” value (Xanthomonas orycea; 20 to 60 mg ai/L) was “good control”. For the same compound, the “Efficacy (%)” value (Xanthomonas orycea; 6 Mg ai/L) was 13%, the “Efficacy (%)” value (Xanthomonas orycea; 20 Mg ai/L) was 72% and the “Efficacy (%)” value (Xanthomonas orycea; 60 Mg ai/L) was 99%. For the same compound, the “Efficacy 12 DAT* (%)” value (Xanthomonas campestris) was 84%, the “control of Xanthomonas campestris (in words)” value (Xanthomonas campestris; spray) was “good control” and the “control or suppression of Ralstonia spp. (in words)” value (Ralstonia spp.) was “control or suppression”. The “% Wilt 14 DAT” value (Ralstonia spp.; 14 DAT) was 3.5%, the “% efficacity vs. inoculated check, 14 DAT” value (Ralstonia spp.; 14 DAT) was 84% and the “% Wilt 28 DAT” value (Ralstonia spp.; 28 DAT) was 18%. The “% efficacity vs. inoculated check, 28 DAT” value (Ralstonia spp.; 28 DAT) was 87%.
